Experimental data taken from article PMC8476002, “Bergamottin a CYP3A inhibitor found in grapefruit juice inhibits prostate cancer cell growth by downregulating androgen receptor signaling and promoting G0/G1 cell cycle block and apoptosis” (PLoS ONE, 2021).

Assays:
MDAPCa2b cells [1] = assay: MTT growth assay, MDAPCa2b; assay type: cell-based; settings: Homo sapiens, MDA-PCa-2b
Description: Growth of the cells was measured using a MTT assay. Cells were plated (2000 cells/ 96 well or 13,000 cells/ 24 well) for 48 hours then treated with bergamottin for 4 days (96 hours) and then incubated with MTT (3-(4,5-Dimethylthiazol- 2-yl)-2,5-Diphenyltetrazolium bromide) (4 mg/ml) for 2 h. at 37°C. DMSO (vehicle control for bergamottin) levels were compensated in each bergamottin treatment group. Cells were centrifuged at 2000 g for 10 min and the supernatant was discarded. The cell pellet was dissolved in 100/500 μl of DMSO depending on the well size. A plate reader was used to read the absorption at 540 nm. Experiments were performed in octuplet/quadruplet and repeated at least three times.

LNCaP cells [2] = assay: Clonogenic assay, LNCaP; assay type: cell-based, human; settings: 5μM and 10μM, 3 weeks
Description: For clonogenic assay, cells were plated in 6 well plates (10,000 cells) for 48 h and then treated with indicated amounts of bergamottin and vehicle control (DMSO). After 3 weeks, the colonies were fixed, stained (0.75% crystal violet, 50% ethanol and 1.75% formaldehyde) and counted. The assay was repeated three times.

total AR in LNCaP cells = assay: Western blotting of total AR, LNCaP; assay type: cell-based, human; settings: bergamottin 10μM, CSSM
Description: (§1) Cells were plated at 25–30% confluence when maintained in complete media. When the cells required DHT tretment and media replacement to charcoal stripped serum media (CSSM) they were plated at 35–40% confluence. Bergamottin is dissolved in DMSO (vehicle control) and the amount of DMSO at each treatment group was kept constant. After the completion of the treatment cells were washed in phosphate buffer (PBS) containing 2mMEDTA and 2mM EGTA and lysed in RIPA buffer (50 mM TRIS, 150 mM NaCl, 1% NP40, 0.5% sodium deoxycholate, 0.1% SDS, 2mM EDTA, 2mM EGTA) supplemented with protease and phosphatase inhibitors for total protein isolation. Protein estimation was performed using micro BCA assay and equal protein amponts were loaded on SDS-PAGE gels for western analysis. GAPDH was used as an internal control for total protein. Infrared fluorescent-labeled secondary antibodies were used for detection using Odyssey CLx. The bands were quantified using Odyssey software, which calculates pixel density and automatically takes an area adjacent to each band for background corrections.

[3] = system: total AR in MDAPCa2b cells; assay: Western blotting of total AR, MDAPCa2b; assay type: cell-based, human; settings: bergamottin 10μM, CSSM
Description: as §1

PSA in LNCaP cells = assay: Western blotting of PSA, LNCaP; assay type: cell-based, human; settings: 10μM, 96 hours
Description: as §1

PSA in MDAPCa2b cells = assay: Western blotting of PSA, MDAPCa2b; assay type: cell-based, human; settings: 10μM, 96 hours
Description: as §1

MDAPCa2b cells [4] = assay: Cell cycle analysis (propidium iodide, flow cytometry), MDAPCa2b; assay type: cell-based, human
Description: Cell cycle analysis was performed after staining the cells with propidium iodide (PI). For long term bergamottin treatment (96 hrs.) cells were plated at 25–30% confluence and for short term bergamottin treatment (48 hrs.) they were plated at 30–35% confluence. After completion of specified treatment the cells were trypsinized washed with PBS and fixed in 70% ethanol and then stained with PI in nicoletti buffer (propidium iodide 50 μg/ml, 0.1% sodium citrate, 0.1% triton X-100, RNase 1 mg/ml, in DPBS). Cells were analyzed using C6 Accuri flow cytometer (Becton Dickinson, Mountainview, CA). FlowJo software was used to gate and remove the debris (gate on SSC and FSC) and aggregates (FL2 A and FL2H) from the analysis. Watson pragmatic and Dean-Jett -Fox methods was used to assign percentage frequencies to cells present in the different cell cycle stages.

LNCaP cells [5] = assay: TUNEL apoptosis detection assay, LNCaP; assay type: cell-based, human; settings: 10μM, 4 days
Description: (§2) To detect apoptosis in the cells after bergamottin treatment In Situ cell death detection kit from Sigma-Aldrich (St. Louis, MO) was used. This apoptosis detection kit fluorescently labels the single and double-stranded DNA breaks caused due to apoptosis using terminal deoxynucleotidyl transferase (TUNEL-reaction). The cells were plated in poly- D- lysine coated 35 mm Glass bottom dish (Cellvis catalog# D35C4-20-1.5-N), treated with bergamottin for the specified time, and dosage and then stained with the kit reagents. The kit recommended protocol was followed. After the staining, the confocal microscope was used to procure images of the cells. The TUNEL assay preferentially labels apoptosis in comparison to necrosis and positive apoptosis is recognized when cells incorporate fluorescent labelled nucleotide (Ex 450 to 500nm and Em 515 to 565-green).

MDAPCa2b cells [6] = assay: TUNEL apoptosis detection assay, MDAPCa2b; assay type: cell-based, human; settings: 10μM, 4 days
Description: as §2

[7] = system: PARP cleavage in LNCaP cells; assay: Western blot of PARP cleavage, LNCaP; assay type: cell-based, human; settings: 5 and 10 μM for 96 hrs. and 20 μM for 48 hrs.
Description: as §1
Cells were plated in complete media without antibiotics on poly D-lysine-coated plates (80,000 cells per 6 well). […]

[8] = system: several other cancer cell types; parameters: method as in PMID 25130169, PMID 27222242, PMID 10552768, PMID 28726768, PMID 26911804; settings: read-out: IC50 for growth of several other cancer cell types; cited from earlier work

With `CC(C)=CCC/C(C)=C/COc1c2ccoc2cc2oc(=O)ccc12` [bergamottin] the inhibition at 10 µM (MDAPCa2b cells [1]; 10μM) was 60%, the IC50 (MDAPCa2b cells [1]; treatment 96 hours (methods) / 120 hours (Fig 1 legend), read-out: bergamottin concentration giving 50% growth reduction) was 4 µM and the number of colonies (LNCaP cells [2]) was “significantly reduced the number of colonies”. For the same molecule, the “downregulation of total AR levels” value (total AR in LNCaP cells) was 50%, the “downregulation of total AR levels” value [3] was 50% and the PSA levels (PSA in LNCaP cells) was “significantly reduced PSA levels”. For the same molecule, the PSA levels (PSA in MDAPCa2b cells) was “significantly reduced PSA levels”, the “G1 frequency, Dean-Jett-Fox” value (MDAPCa2b cells [4]; Berg 5μM, 96 hrs.) was 84.2 ±1.5% and the “G2 frequency, Dean-Jett-Fox” value (MDAPCa2b cells [4]; Berg 5μM, 96 hrs.) was 2.3 ±2.2%. For the same molecule, the “G2 frequency, Watson Pragmatic” value (MDAPCa2b cells [4]; Berg 5μM, 96 hrs.) was 8.4 ±1.6%, the “S frequency, Dean-Jett-Fox” value (MDAPCa2b cells [4]; Berg 5μM, 96 hrs.) was 12.2 ±1.0% and the “S frequency, Watson Pragmatic” value (MDAPCa2b cells [4]; Berg 5μM, 96 hrs.) was 7.7 ±2.6%. For the same molecule, the “G1 frequency, Dean-Jett-Fox” value (MDAPCa2b cells [4]; Berg 10μM, 96 hrs.) was 88.8 ±2.0%, the “G2 frequency, Dean-Jett-Fox” value (MDAPCa2b cells [4]; Berg 10μM, 96 hrs.) was 3.3 ±0.3% and the “G2 frequency, Watson Pragmatic” value (MDAPCa2b cells [4]; Berg 10μM, 96 hrs.) was 6.6 ±1.2%. For the same molecule, the “S frequency, Dean-Jett-Fox” value (MDAPCa2b cells [4]; Berg 10μM, 96 hrs.) was 7.4 ±2.5%, the “S frequency, Watson Pragmatic” value (MDAPCa2b cells [4]; Berg 10μM, 96 hrs.) was 5.8 ±2.8% and the “G1 frequency, Dean-Jett-Fox” value (MDAPCa2b cells [4]; Berg 20μM, 48 hrs.) was 84.9 ±0.4%. The “G2 frequency, Dean-Jett-Fox” value (MDAPCa2b cells [4]; Berg 20μM, 48 hrs.) was 9.6 ±0.5%, the “G2 frequency, Watson Pragmatic” value (MDAPCa2b cells [4]; Berg 20μM, 48 hrs.) was 9.6 ±1.8% and the “S frequency, Dean-Jett-Fox” value (MDAPCa2b cells [4]; Berg 20μM, 48 hrs.) was 6.7 ±0.7%. The “S frequency, Watson Pragmatic” value (MDAPCa2b cells [4]; Berg 20μM, 48 hrs.) was 7.1 ±1.7%, the “G1 frequency, Dean-Jett-Fox” value (MDAPCa2b cells [4]; Berg 30μM, 48 hrs.) was 88.4 ±3.6% and the “G2 frequency, Dean-Jett-Fox” value (MDAPCa2b cells [4]; Berg 30μM, 48 hrs.) was 6.8 ±3.2%. For the same molecule, the “G2 frequency, Watson Pragmatic” value (MDAPCa2b cells [4]; Berg 30μM, 48 hrs.) was 8.4 ±1.1%, the “S frequency, Dean-Jett-Fox” value (MDAPCa2b cells [4]; Berg 30μM, 48 hrs.) was 3.3 ±3.4% and the “S frequency, Watson Pragmatic” value (MDAPCa2b cells [4]; Berg 30μM, 48 hrs.) was 5.6 ±0.5%. The “DNA breaks (TUNEL, apoptosis)” value (LNCaP cells [5]) was “increased DNA breaks”, the “DNA breaks (TUNEL, apoptosis)” value (MDAPCa2b cells [6]) was “increased DNA breaks” and the PARP cleavage [7] was “showed apoptosis (cleaved PARP)”. For the same molecule, the IC50 [8] was 30 to 100 µM.
